“Also recorded” adds a separate entry of the source. Square brackets hold non-standard residues; d marks the D form. Ends that are not written are not given here. Peptide text beside a SMILES is read from it. * marks the point of attachment. hArg = N=C(N)NCCCC[C@H](N)C(=O)O; Pentanoyl = CCCCC(=O)*
What was measured:
[1] = target: T1, PCSK9Δhelix (Homo sapiens, UniProt Q8NBP7); assay: PCSK9Δhelix/Ab20 TR-FRET binding assay
T1 construct: Human PCSK9 construct M1-Q692 with an engineered TEV site (residue deletion Y166, R167); made in house; host or cells: CHO

[2] = tested on: His-EGF(A)-Fc; assay: His-EGF(A)-Fc TR-FRET counterscreen; conditions: counterscreen, Example 7
[3] = target: T2, FXIa (Homo sapiens, UniProt P03951); assay: LC-MS determination of FXIa-mediated cleavage of groove-binding peptides; format: in vitro ADME
T2 construct: purchased Haematologic Technologies
Procedure: Peptide cleavage was determined by using the calculated molecular weights and by measuring the area under the curves.

[4] = target: T3, PCSK9 (Homo sapiens, UniProt Q8NBP7); assay: PCSK9/EGF(A) TR-FRET binding assay; conditions: TR-FRET, Example 7; read-out: PCSK9/EGF(A) IC50
[5] = target: T4, PCSK9-R167A:R215A:R218A (PCSK9-AAA) (Homo sapiens, UniProt Q8NBP7, R167A/R215A/R218A); assay: FXIa cleavage assay of the P′ helix of PCSK9-AAA; format: biochemical; conditions: immunoblot with anti-N-terminal peptide antibody
T4 construct: made in house; host or cells: CHO (transient)
Procedure: The PCSK9-AAA mutant (2.6 μM) was incubated with 50 nM FXIa (Haematologic Technologies) in Tris buffer (50 mM Tris, 150 mM NaCl, 4 mM CaCl2, pH 8.0) at room temperature for the indicated time periods. […] After SDS-PAGE of the samples, proteins were transferred to a nitrocellulose membrane using iBlot (Invitrogen). Proteins were then probed with a polyclonal rabbit antibody (1:3000) raised against the PCSK9 N-terminal peptide (^153[…]^168 (SEQ ID NO: 5)), followed with HRP-conjugated donkey anti-rabbit antibody (1:5000, GE Healthcare) using iBind (Invitrogen). PCSK9 signals were detected by ECL (GE Healthcare) and visualized by autoradiography.
Proteins were then probed with a polyclonal rabbit antibody (1:3000) raised against the PCSK9 N-terminal peptide (^153[…]^168 (SEQ ID NO: 5)), followed with HRP-conjugated donkey anti-rabbit antibody (1:5000, GE Healthcare) using iBind (Invitrogen). PCSK9 signals were detected by ECL (GE Healthcare) and visualized by autoradiography.

[6] = target: T5, LDLR ectodomain (Homo sapiens, UniProt P01130); assay: Biolayer interferometry binding of PCSK9 mutants to LDLR ectodomain
T5 construct: purchased R & D Systems
Excerpt: In further experiments the previously described PCSK9 mutant PCSK9-R215A:R218A (=PCSK9-AA) (Lipari et al. J Biol Chem. 2012 Dec. 21; 287(52):43482-91), in which the “furin cleavage loop” residues had been changed to Alanine, was used in order to prevent protease cleavage at the susceptible residues R215 and R218. […] Therefore, to direct the FXIa cleavage specifically to the P′ alpha helix residue R160 the triple mutant PCSK9-R167A:R215A:R218A (=PCSK9-AAA) was produced. The binding affinities of PCSK9-AAA and PCSK9-AA to the LDLR ectodomain (R & D Systems) were determined by biolayer interferometry as described (Lipari et al. J Biol Chem. 2012 Dec. 21; 287(52):43482-91).

[7] = target: T3, PCSK9; assay: Phage competition ELISA; format: binding
Procedure: The sequences of selected clones were fused to the N-terminus of M13 major coat protein (p8) using Kunkel mutagenesis method (Kunkel et al., Methods Enzymol 154, 367-82). The resulting construct was transformed to E. Coli. XL1 blue, single colony was grown in 1 mL 2YT supplemented with 50 μg/mL carbenicillin, 10 μg/mL Tetracycline and M13 KO7 helper phage at 37° C. for 2 h, Kanamycin was added to final concentration of 25 μg/mL, growth was continued at 37° C. for 6 h. The culture was transferred to 30 mL 2YT supplemented with 50 μg/mL carbenicillin and 25 μg/mL kanamycin and grown at 37° C. overnight. The next day, the phage was harvested and purified using the standard protocol (Tonikian et al. Nat Protoc. 2007; 2(6):1368-86). The serially diluted phage solution was applied to the biotinylated PCSK9 and biotinylated PCSK9Δhelix that had been immobilized for 15 min on a 384-well MaxiSorp ImmunoPlate previously coated with 5 μg/mL NeutrAvidin and blocked with Block buffer. The plate was incubated at 4° C. for 1 h, washed 10 times with PT buffer (PBS, 0.05% Tween® 20). The bound phage was detected with anti-M13-HRP and the ELISA signal was read at OD450 nm. The background was ELISA signal that the phage directly bound to NeutrAvidin-coated plate. The data was plotted and the curve fitted with KaleidaGraph. Sub-saturating phage concentration that gave 80% of maximum binding signal was determined by the binding curve.
IC50 measurements were performed by mixing a fixed sub-saturating concentration of peptide-displaying phage with a serial dilution of synthetic peptides in PBT buffer. The mixture was added to plates coated with PCSK9 and PCSK9Δhelix and incubated for 1 h at room temperature. The plates were then washed 10 times with PBT buffer and the bound phage was detected by anti-M13-HRP. The data was plotted, curve fitted and IC50 derived by use of KaleidaGraph. All measurements were repeated 3 times independently.

[8] = target: T3, PCSK9; assay: PCSK9 | IC50(uM)
Excerpt: Where the first naming reader finds the target: head: PCSK9 | IC50(uM)

[9] = target: T1, PCSK9Δhelix; assay: PCSK9Δhelix | IC50(uM)
Excerpt: Where the first naming reader finds the target: head: PCSK9Δhelix | IC50(uM)

[10] = tested on: contaminating protease; assay: PCSK9 cleavage under crystallization conditions and inhibition by serine protease inhibitors; format: biochemical; conditions: serpins 150 μM, Aprotinin 1.5 mM, 9 days, room temperature
Procedure: After SDS-PAGE of the samples, the 60 kDa band comprising the PCSK9 catalytic domain and Cys-rich domain (CRD) was analyzed by N-terminal sequencing and the results reported in Table 2.
Samples were analyzed by SDS-PAGE and transferred to a nitrocellulose membrane using iBlot (Invitrogen). Proteins were then probed with a polyclonal rabbit antibody (1:3000) raised against the PCSK9 N-terminal peptide (^153[…]^168 (SEQ ID NO: 5)), followed with HRP-conjugated donkey anti-rabbit antibody (1:5000, GE Healthcare) using iBind (Invitrogen). PCSK9 signals were detected by ECL (GE Healthcare) and visualized by autoradiography. The polyclonal rabbit antibody against the PCSK9 N-terminal peptide ^153[…]^168 (SEQ ID NO: 5) was generated by immunizing rabbits with the synthesized peptide […] (SEQ ID NO: 285), which contained an extra Cys residue at the N-terminus for conjugation to KLH. The polyclonal antibody IgG was purified from rabbit serum using affinity chromatography with resin-immobilized peptide […] (SEQ ID NO: 285) (YenZym Antibodies, LLC, San Francisco, Calif.).

With `CCCCC(=O)N[C@@H](Cc1c[nH]c2ccccc12)C(=O)N[C@@H](CC(N)=O)C(=O)N[C@@H](CC(C)C)C(=O)N[C@H](C(=O)N[C@@H](CCCNC(=N)N)C(=O)N[C@H](C(=O)NCC(=O)N[C@@H](CC(C)C)C(=O)N[C@H](C(=O)N[C@@H](CCCNC(=N)N)C(N)=O)[C@@H](C)O)[C@@H](C)CC)C(C)C` [Compound 112] (Pentanoyl-WNLVRIGLTR-NH2) the IC50 ([1]; TR-FRET, Example 7, read-out: PCSK9Δhelix/Ab20 IC50) was 7500 nM, the IC50 [2] was greater than 50000 nM and the “peptide cleaved by FXIa” value ([3]; 1 h, with K9-AAA and 50 nM FXIa) was 34%. The “peptide cleaved by FXIa” value ([3]; 6 h, with K9-AAA and 50 nM FXIa) was 76%, the metabolised at 1 h ([3]; isolated protease FXIa (50 nM) with K9-AAA, 1 h, with K9-AAA and 50 nM FXIa, read-out: peptide cleaved by FXIa) was 34% and the metabolised at 6 h ([3]; isolated protease FXIa (50 nM) with K9-AAA, 6 h, with K9-AAA and 50 nM FXIa, read-out: peptide cleaved by FXIa) was 76%. The IC50 [4] was greater than 50000 nM and the “effect on FXIa-mediated cleavage of the P′ helix of PCSK9-AAA” value [5] was “able to increase the FXIa-mediated cleavage”.

In the case of `CCCCC(=O)N[C@@H](Cc1c[nH]c2ccccc12)C(=O)N[C@@H](CC(N)=O)C(=O)N[C@@H](CC(C)C)C(=O)N[C@H](C(=O)N[C@@H](CCCCNC(=N)N)C(=O)N[C@H](C(=O)NCC(=O)N[C@@H](CC(C)C)C(=O)N[C@H](C(=O)N[C@@H](CCCNC(=N)N)C(N)=O)[C@@H](C)O)[C@@H](C)CC)C(C)C` [Compound 118, n-BuC(O)-WNLV(homoR)IGLTR-NH2] (Pentanoyl-WNLV[hArg]IGLTR-NH2), the “increase of inhibition in PCSK9Δhelix/Ab20 assay by homo-arginine replacement” value ([1]; versus Compound 112) is reported as 5 fold, the IC50 [2] is reported as greater than 50000 nM and the “peptide cleavage by FXIa” value ([3]; up to 6 h) is reported as “remained intact; also recorded: No cleavage”. The IC50 [4] was greater than 50000 nM and the “effect on FXIa-mediated cleavage of the P′ helix of PCSK9-AAA” value [5] was “higher degree; also recorded: able to increase the FXIa-mediated cleavage; also recorded: stronger effect”.

Molecule “PCSK9-AA: PCSK9 mutant in which the furin cleavage loop residues R215 and R218 had been changed to Alanine” has a Kd [6] of 260 nM.

In the case of “SGDLMPWNLVRIGLLR-NH2 [Compound K9gvpep7]”, the “competition with binding of phage-displayed Pep2-8 to PCSK9” value [7] is reported as “did not compete”, the IC50 [8] is reported as 635 ± 107 nM and the IC50 [9] is reported as 914 ± 28.3 nM.

In the case of “SGGSMPWNLERIFALH-NH2 [Compound K9gvpep8]”, the “competition with binding of phage-displayed Pep2-8 to PCSK9” value [7] is reported as “did not compete”, the IC50 [8] is reported as 1700 ± 166 nM and the IC50 [9] is reported as 2150 ± 215 nM.

In the case of “alpha1-antitrypsin: more elastase-specific serpin”, the “inhibition of P′ helix cleavage of the Fab33:PCSK9 complex by contaminating protease” value [10] is reported as “did not inhibit cleavage”.

With antithrombin III the “inhibition of P′ helix cleavage of the Fab33:PCSK9 complex by contaminating protease” value [10] was “cleavage was prevented; also recorded: able to prevent proteolytic cleavage”.

B1: PCSK9-AAA: triple mutant PCSK9-R167A:R215A:R218A (protein, UniProt Q8NBP7 153-692, looked up, variant R167A R215A R218A)
Proprotein convertase …: SIPWNLERITPPRYAADEYQPPDGGSLVEVYLLDTSIQSDHREIEGRVMVTDFENVPEEDGTAFHAQASKCDSHGTHLAGVVSGRDAGVAKGASMRSLRVLNCQGKGTVSGTLIGLEFIRKSQLVQPVGPLVVLLPLAGGYSRVLNAACQRLARAGVVLVTAAGNFRDDACLYSPASAPEVITVGATNAQDQPVTLGTLGTNFGRCVDLFAPGEDIIGASSDCSTCFVSQSGTSQAAAHVAGIAAMMLSAEPELTLAELRQRLIHFSAKDVINEAWFPEDQRVLTPNLVAALPPSTHGAGWQLFCRTVWSAHSGPTRMATAVARCAPDEELLSCSSFSRSGKRRGERMEAQGGKLVCRAHNAFGGEGVYAIARCCLLPQANCSVHTAPPAEASMGTRVHCHQQGHVLTGCSSHWEVEDLGTHKPPVLRPRGQPNQCVGHREASIHASCCHAPGLECKVKEHGIPAPQEQVTVACEEGWTLTGCSALPGTSHVLGAYAVDNTCVVRSRDVSTTGSTSEGAVTAVAICCRSRHLAQASQELQ
Work on B1 yielded a Kd [6] of 214 nM.
